Legend:
Acetylcholinesterase = Acetylcholinesterase (Electrophorus electricus, UniProt O42275); assay: Inhibition of Electrophorus electricus AChE using acetylthiocholine iodide as substrate by Ellman's method
Cholinesterase = Cholinesterase (Equus caballus, UniProt P81908); assay: Inhibition of BuChE in equine serum using Butyrylthiocholine iodide as substrate by Ellman's method; format: cell-free
SH-SY5Y = assay: cells; format: ADME, cell-based; conditions: Homo sapiens, 72 h
[1] = Solubility of compound in <1 % DMSO; format: physicochemical
[2] = Solubility of compound in water at 10 mM; format: physicochemical; conditions: buffer, 10000 µM

Chain of Cholinesterase (P81908 whole entry): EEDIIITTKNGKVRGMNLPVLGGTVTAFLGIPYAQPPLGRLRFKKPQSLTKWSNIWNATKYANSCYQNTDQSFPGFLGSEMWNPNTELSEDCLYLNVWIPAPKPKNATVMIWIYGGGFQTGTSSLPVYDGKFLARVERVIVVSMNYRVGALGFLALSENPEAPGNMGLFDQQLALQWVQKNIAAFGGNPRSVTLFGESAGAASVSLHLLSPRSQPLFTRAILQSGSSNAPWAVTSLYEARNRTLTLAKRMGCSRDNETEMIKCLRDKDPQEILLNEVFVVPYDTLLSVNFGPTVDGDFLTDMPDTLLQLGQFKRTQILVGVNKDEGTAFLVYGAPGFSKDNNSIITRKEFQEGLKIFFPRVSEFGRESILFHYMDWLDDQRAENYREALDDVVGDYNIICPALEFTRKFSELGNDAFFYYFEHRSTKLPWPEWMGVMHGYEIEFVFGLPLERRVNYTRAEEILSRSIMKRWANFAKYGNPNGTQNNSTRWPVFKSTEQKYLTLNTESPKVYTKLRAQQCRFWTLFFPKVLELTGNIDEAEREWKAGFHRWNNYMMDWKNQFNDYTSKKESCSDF
Chain of Acetylcholinesterase (O42275 whole entry): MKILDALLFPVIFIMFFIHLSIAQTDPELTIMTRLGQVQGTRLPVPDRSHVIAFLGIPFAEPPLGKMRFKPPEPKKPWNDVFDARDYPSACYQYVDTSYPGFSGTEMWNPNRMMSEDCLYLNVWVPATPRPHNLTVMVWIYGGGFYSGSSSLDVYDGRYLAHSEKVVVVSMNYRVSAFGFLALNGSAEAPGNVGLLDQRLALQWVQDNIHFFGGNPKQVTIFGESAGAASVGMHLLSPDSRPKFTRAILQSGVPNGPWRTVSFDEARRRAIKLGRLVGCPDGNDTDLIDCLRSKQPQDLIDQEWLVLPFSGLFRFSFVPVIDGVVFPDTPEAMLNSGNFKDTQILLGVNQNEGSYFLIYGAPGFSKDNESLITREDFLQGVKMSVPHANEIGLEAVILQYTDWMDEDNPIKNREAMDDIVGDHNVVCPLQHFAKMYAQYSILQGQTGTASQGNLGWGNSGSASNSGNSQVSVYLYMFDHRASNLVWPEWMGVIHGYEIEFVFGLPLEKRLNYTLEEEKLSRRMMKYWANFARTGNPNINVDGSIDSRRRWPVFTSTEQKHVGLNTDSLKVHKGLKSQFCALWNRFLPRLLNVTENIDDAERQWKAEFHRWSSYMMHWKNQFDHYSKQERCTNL

SMILES	IC50 (Acetylcholinesterase) [µM]	IC50 (Cholinesterase) [µM]	IC50 (SH-SY5Y) [µM]	solubility [1]	solubility [2]
O=C(NCCc1c[nH]c2ccccc12)C1CCN(Cc2ccccc2)CC1	25.6	> 100	40.5	Soluble	Insoluble
COc1cc2c(cc1OC)-c1nc(NC(=O)C3CCN(Cc4ccccc4)CC3)sc1C2	–	> 100	31.3	Soluble	Insoluble
Cc1c(NC(=O)C2CCN(Cc3ccccc3)CC2)c(=O)n(-c2ccccc2)n1C	5.94	> 100	> 100	Soluble	Insoluble
O=C(Nc1nccs1)C1CCN(Cc2ccccc2)CC1	51.1	> 100	76.6	Soluble	Insoluble
O=C(NC1CCCc2ccccc21)C1CCN(Cc2ccccc2)CC1 (stereo not given)	> 100	> 100	99.3	Soluble	Insoluble
O=C(NCCN1CCCCC1)C1CCN(Cc2ccccc2)CC1	82.1	> 100	> 100	Soluble	Insoluble
O=C(NCc1ccccn1)C1CCN(Cc2ccccc2)CC1	30.9	> 100	> 100	Soluble	Insoluble
O=C(NCCNc1cccc2ccccc12)C1CCN(Cc2ccccc2)CC1	14	> 100	13.6	Soluble	Insoluble
COc1cc(CCNC(=O)C2CCN(Cc3ccccc3)CC2)cc(OC)c1OC	> 100	> 100	> 100	Soluble	Insoluble
O=C(NCCN1CCOCC1)C1CCN(Cc2ccccc2)CC1	> 100	> 100	73.4	Soluble	Insoluble
O=C(NCCc1c[nH]cn1)C1CCN(Cc2ccccc2)CC1	> 100	> 100	> 100	Soluble	Insoluble
O=C(NCc1ccncc1)C1CCN(Cc2ccccc2)CC1	58.2	> 100	3.37	Soluble	Insoluble
O=C(NCc1cccnc1)C1CCN(Cc2ccccc2)CC1	58.9	> 100	> 100	Soluble	Insoluble
O=C(NCc1ccco1)C1CCN(Cc2ccccc2)CC1	> 100	> 100	> 100	Soluble	Insoluble
COc1ccccc1CNC(=O)C1CCN(Cc2ccccc2)CC1	44.4	> 100	50.9	Soluble	Insoluble
COc1cc2c(cc1OC)C(=O)C(CC1CCN(Cc3ccccc3)CC1)C2 (stereo not given) [DONEPEZIL]	–	–	95.1	–	–
